Drawing on patent US10479784B2, “Substituted pyrazin-2-amines as inhibitors of ATR kinase” (Vertex Pharmaceuticals Incorporated, priority 2008, dated 2019), this text covers Ki for 45 compounds.

Where only a bound is given, the exact number is not on record here.

For this test, the target named is full-length ATR (Homo sapiens (Human), UniProt Q13535). Nature of the test: ATR Inhibition Assay (radioactive-phosphate incorporation). It is filed as biochemical. The conditions noted are these: read-out: ATR Ki. The gist of the method:
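Full-length human ATR (5 nM) was assayed at 25 °C in 50 mM Tris/HCl pH 7.5, 10 mM MgCl2, 1 mM DTT, with 10 μM [γ-33P]ATP and 800 μM peptide, after 10-min compound preincubation. Reactions were stopped after 24 h, captured on phosphocellulose and counted; Ki(app) came from non-linear regression of initial rates.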

Sequence of full-length ATR (Q13535 whole entry): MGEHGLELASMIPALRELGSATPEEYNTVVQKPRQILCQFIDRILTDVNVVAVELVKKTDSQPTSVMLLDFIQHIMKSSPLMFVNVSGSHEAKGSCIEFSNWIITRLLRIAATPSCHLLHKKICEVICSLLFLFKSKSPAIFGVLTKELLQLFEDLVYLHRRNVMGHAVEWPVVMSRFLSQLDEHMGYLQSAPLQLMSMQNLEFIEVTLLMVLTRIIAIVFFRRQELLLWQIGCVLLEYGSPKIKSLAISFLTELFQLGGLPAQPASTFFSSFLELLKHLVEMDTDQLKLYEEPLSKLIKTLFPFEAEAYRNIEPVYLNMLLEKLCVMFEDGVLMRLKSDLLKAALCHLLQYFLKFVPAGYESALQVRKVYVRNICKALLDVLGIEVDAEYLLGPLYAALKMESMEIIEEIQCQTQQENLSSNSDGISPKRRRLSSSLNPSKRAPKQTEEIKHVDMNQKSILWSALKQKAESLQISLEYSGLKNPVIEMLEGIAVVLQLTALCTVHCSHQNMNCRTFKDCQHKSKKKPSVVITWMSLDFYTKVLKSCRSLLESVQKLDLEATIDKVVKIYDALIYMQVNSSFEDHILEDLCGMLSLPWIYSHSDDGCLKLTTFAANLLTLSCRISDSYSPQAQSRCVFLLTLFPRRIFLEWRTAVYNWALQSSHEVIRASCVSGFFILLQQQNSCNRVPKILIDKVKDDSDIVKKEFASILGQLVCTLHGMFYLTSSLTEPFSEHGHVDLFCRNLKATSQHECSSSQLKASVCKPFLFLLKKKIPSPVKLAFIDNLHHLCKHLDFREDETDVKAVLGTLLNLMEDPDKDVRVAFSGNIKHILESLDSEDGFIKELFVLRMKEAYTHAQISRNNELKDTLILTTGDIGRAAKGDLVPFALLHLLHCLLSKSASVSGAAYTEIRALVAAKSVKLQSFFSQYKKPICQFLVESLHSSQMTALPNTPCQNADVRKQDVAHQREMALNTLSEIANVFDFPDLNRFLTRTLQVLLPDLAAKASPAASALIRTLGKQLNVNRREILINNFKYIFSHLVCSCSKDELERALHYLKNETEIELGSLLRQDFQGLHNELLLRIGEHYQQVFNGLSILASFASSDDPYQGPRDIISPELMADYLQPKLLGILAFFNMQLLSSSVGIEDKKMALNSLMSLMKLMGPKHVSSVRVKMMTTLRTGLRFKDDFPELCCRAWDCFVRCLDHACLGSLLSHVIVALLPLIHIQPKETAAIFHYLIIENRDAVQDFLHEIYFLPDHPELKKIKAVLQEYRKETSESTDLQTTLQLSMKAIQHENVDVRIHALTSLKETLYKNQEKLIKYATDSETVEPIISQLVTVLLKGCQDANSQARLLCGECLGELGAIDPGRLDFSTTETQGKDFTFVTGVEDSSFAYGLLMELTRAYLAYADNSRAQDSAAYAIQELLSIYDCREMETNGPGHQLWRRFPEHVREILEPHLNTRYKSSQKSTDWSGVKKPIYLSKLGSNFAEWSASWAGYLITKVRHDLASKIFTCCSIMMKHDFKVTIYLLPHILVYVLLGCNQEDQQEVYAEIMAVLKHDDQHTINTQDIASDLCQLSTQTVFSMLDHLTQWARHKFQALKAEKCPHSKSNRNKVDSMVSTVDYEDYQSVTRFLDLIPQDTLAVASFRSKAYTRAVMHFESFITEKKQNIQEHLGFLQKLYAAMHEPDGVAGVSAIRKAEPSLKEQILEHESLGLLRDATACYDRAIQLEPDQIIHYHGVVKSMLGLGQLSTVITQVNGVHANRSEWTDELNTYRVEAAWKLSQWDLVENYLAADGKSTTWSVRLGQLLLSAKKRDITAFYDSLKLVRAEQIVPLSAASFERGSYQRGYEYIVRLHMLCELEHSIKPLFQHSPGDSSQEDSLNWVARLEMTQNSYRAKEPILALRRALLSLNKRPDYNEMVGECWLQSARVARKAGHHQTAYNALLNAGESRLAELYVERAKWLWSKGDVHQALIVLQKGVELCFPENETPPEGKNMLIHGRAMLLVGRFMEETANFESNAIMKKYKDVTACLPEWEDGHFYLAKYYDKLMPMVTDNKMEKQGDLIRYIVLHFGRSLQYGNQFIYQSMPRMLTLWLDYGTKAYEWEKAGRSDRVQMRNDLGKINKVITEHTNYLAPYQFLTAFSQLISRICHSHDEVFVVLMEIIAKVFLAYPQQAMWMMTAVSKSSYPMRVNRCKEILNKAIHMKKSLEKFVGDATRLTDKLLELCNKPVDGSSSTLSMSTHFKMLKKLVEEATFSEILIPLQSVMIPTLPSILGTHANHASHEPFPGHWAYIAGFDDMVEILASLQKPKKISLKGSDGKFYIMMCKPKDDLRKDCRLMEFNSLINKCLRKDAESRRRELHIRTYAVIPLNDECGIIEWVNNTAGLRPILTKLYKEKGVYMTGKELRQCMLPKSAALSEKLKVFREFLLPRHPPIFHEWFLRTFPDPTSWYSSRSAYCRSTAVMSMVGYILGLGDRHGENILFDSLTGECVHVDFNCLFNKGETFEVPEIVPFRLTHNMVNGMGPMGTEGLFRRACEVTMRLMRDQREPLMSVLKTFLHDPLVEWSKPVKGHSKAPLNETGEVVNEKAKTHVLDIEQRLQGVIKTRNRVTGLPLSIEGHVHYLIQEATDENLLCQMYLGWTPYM

Turning to `CNCc1csc(-c2nnc(-c3nc(-c4ccc(S(=O)(=O)C(C)C)cc4)cnc3N)o2)c1` [IA-226, 5-(4-isopropylsulfonylphenyl)-3-[5-[4-(methylaminomethyl)-2-thienyl]-1,3,4-oxadiazol-2-yl]pyrazin-2-amine], the Ki – broadly, a dissociation constant, usually derived from enzyme kinetics or from competition with a known ligand – is at most 10 nM.
As for `CN1CCN(C(=O)c2ccc(-c3cnc(N)c(-c4nnc(-c5ccccc5)o4)n3)cc2)CC1` [IA-9], the inhibition constant Ki is at most 10 nM.
With `CC(C)S(=O)(=O)c1ccc(-c2cnc(N)c(-c3nnc(-c4ccc(CO)cc4)o3)n2)cc1` [IA-238, [4-[5-[3-amino-6-(4-isopropylsulfonylphenyl)pyrazin-2-yl]-1,3,4-oxadiazol-2-yl]phenyl]methanol], the Ki was at most 10 nM.
The figure for `CN(C)C(=O)c1ccc(-c2cnc(N)c(-c3nnc(Nc4ccc(Cl)cc4)o3)n2)cc1` [IA-42] is 10 to 100 nM.
Turning to `CN(C)C(=O)c1ccc(-c2cnc(N)c(-c3nnc(Nc4ccccc4)o3)n2)cc1` [IA-32], the Ki is 10 to 100 nM.
Consider `CC(C)S(=O)(=O)c1ccc(-c2cnc(N)c(-c3nnc(NCCCN)o3)n2)cc1` [IA-97, N-[5-[3-amino-6-(4-isopropylsulfonylphenyl)pyrazin-2-yl]-1,3,4-oxadiazol-2-yl]propane-1,3-diamine], for which the Ki is 10 to 100 nM.
The figure for `CN(C)C(=O)c1ccc(-c2cnc(N)c(-c3nnc(N(C)c4ccccc4)o3)n2)cc1` [IA-250, 4-[5-amino-6-[5-(N-methylanilino)-1,3,4-oxadiazol-2-yl]pyrazin-2-yl]-N,N-dimethyl-benzamide] is 100 to 5000 nM; for `CC(C)S(=O)(=O)c1ccc(-c2cnc(N)c(-c3nnc(CC(=O)O)o3)n2)cc1` [IA-78, 2-[5-[3-amino-6-(4-isopropylsulfonylphenyl)pyrazin-2-yl]-1,3,4-oxadiazol-2-yl]acetic acid] it is 10 to 100 nM; for `Nc1ncc(-c2ccncc2)nc1-c1nnc(-c2ccccc2)o1` [IA-60] it is at most 10 nM.
In the case of `Nc1ncc(-c2ccc3[nH]ncc3c2)nc1C(=O)Nc1ccccc1` [Compound I-39, 3-amino-6-(1H-indazol-5-yl)-N-phenylpyrazine-2-carboxamide], the Ki was in the range of 10 to 100 nM.
As to `Cc1ccccc1NC(=O)c1nc(-c2cccnc2)cnc1N` [Compound I-91, 3-amino-6-(pyridin-3-yl)-N-o-tolylpyrazine-2-carboxamide], the Ki was 100 to 5000 nM.
In the case of `CNCc1ccc(-c2nnc(-c3nc(-c4ccc(C(=O)N(C)C)cc4)cnc3N)o2)cc1` [IA-281, 4-[5-amino-6-[5-[4-(methylaminomethyl)phenyl]-1,3,4-oxadiazol-2-yl]pyrazin-2-yl]-N,N-dimethyl-benzamide], the Ki was at most 10 nM.
The figure for `CN(C)C(=O)c1ccc(-c2cnc(N)c(-c3nnc(-c4ccccc4I)o3)n2)cc1` [IA-205, 4-[5-amino-6-[5-(2-iodophenyl)-1,3,4-oxadiazol-2-yl]pyrazin-2-yl]-N,N-dimethyl-benzamide] is at most 10 nM.
With `NC(=O)c1cccc(-c2cnc(N)c(C(=O)Nc3ccccc3)n2)c1` [Compound I-18, 3-amino-6-(3-carbamoylphenyl)-N-phenylpyrazine-2-carboxamide], the Ki lay within 100 to 5000 nM.
With `Nc1ncc(-c2cccnc2)nc1-c1nnc(-c2ccccc2)o1` [IA-64], the Ki lay in the range of 10 to 100 nM.
Consider `CC(=O)NCc1ccc(-c2cnc(N)c(-c3nc4ccccc4[nH]3)n2)cc1` [Compound I-130, N-(4-(5-amino-6-(1H-benzo[d]imidazol-2-yl)pyrazin-2-yl)benzyl) ethanamide], for which the Ki was in the range of 100 to 5000 nM.
In the case of `Cc1cnc(NC(=O)c2nc(-c3ccc(S(C)(=O)=O)cc3)cnc2N)s1` [VII-8], the Ki was in the range of 10 to 100 nM.
The figure for `CC(C)S(=O)(=O)c1ccc(-c2cnc(N)c(-c3nnc(-c4ccc(C5CNC5)cc4)o3)n2)cc1` [IA-285, 3-[5-[4-(azetidin-3-yl)phenyl]-1,3,4-oxadiazol-2-yl]-5-(4-isopropylsulfonylphenyl)pyrazin-2-amine] is at most 10 nM; for `N#Cc1cc(C(=O)N2CCCNCC2)ccc1-c1cnc(N)c(C(=O)Nc2nc3ccccc3[nH]2)n1` [Compound V-2] it is at most 10 nM.
On to `CC(C)(C)S(=O)(=O)c1ccc(-c2cnc(N)c(-c3nnc(-c4ccccc4)o3)n2)cc1` [IA-280, 5-(4-tert-butylsulfonylphenyl)-3-(5-phenyl-1,3,4-oxadiazol-2-yl)pyrazin-2-amine], for which the Ki is at most 10 nM.
The value for `Nc1ncc(-c2ccc(C(=O)N3CCCN(C=O)CC3)cc2)nc1-c1nnc(-c2ccccc2)o1` [IA-29] was at most 10 nM.
Take `COc1ccc2nc(-c3nc(-c4ccc(S(C)(=O)=O)cc4)cnc3N)[nH]c2c1` [Compound I-115, 3-(6-methoxy-1H-benzo[d]imidazol-2-yl)-5-(4-(methylsulfonyl)phenyl) pyrazin-2-amine]: the Ki was in the range of 10 to 100 nM.
For `CN(C)CCS(=O)(=O)c1ccc(-c2cnc(N)c(-c3nnc(-c4ccccc4)o3)n2)cc1` [IA-169, 5-[4-(2-dimethylaminoethylsulfonyl)phenyl]-3-(5-phenyl-1,3,4-oxadiazol-2-yl)pyrazin-2-amine], the Ki is at most 10 nM.
Take `Nc1ncc(-c2ccc(S(=O)(=O)NCCO)cc2)nc1-c1nnc(-c2ccccc2)o1` [IA-26]: the Ki is at most 10 nM.
`CNCc1cccc(NC(=O)c2nc(-c3ccc(S(C)(=O)=O)cc3)cnc2N)c1` [VII-13]: the inhibition constant (Ki) lay in the range of 10 to 100 nM.
For `CC(C)S(=O)(=O)c1ccc(-c2cnc(N)c(-c3nnc(-c4ccc(C(N)C(F)(F)F)cc4)o3)n2)cc1` (stereo in doubt) [IA-325, 3-[5-[4-[(1S)-1-amino-2,2,2-trifluoro-ethyl]phenyl]-1,3,4-oxadiazol-2-yl]-5-(4-isopropylsulfonylphenyl)pyrazin-2-amine], the Ki fell in the range of 10 to 100 nM.
Take `Nc1ncc(-c2cccc(C(=O)O)c2)nc1C(=O)Nc1ccccc1` [Compound I-8, 3-(5-amino-6-(phenylcarbamoyl)pyrazin-2-yl)benzoic acid]: the inhibition constant (Ki) lay within 100 to 5000 nM.
As to `Nc1ncc(-c2ccccc2)nc1C(=O)Nc1ccccc1` [Compound I-15, 3-amino-N,6-diphenylpyrazine-2-carboxamide], the Ki was 100 to 5000 nM.
As for `CCSc1ccccc1-c1cnc(N)c(-c2nnc(-c3ccccc3)o2)n1` [IA-184, 5-(2-ethylsulfanylphenyl)-3-(5-phenyl-1,3,4-oxadiazol-2-yl)pyrazin-2-amine], the Ki fell in the range of 10 to 100 nM.
`Nc1ncc(-c2ccccc2CO)nc1C(=O)Nc1ccccc1` [Compound I-19, 3-amino-6-(2-(hydroxymethyl)phenyl)-N-phenylpyrazine-2-carboxamide]: the Ki was in the range of 10 to 100 nM.
As for `Cc1ccsc1-c1nnc(-c2nc(-c3ccc(S(=O)(=O)CCN(C)C)cc3)cnc2N)o1` [IA-269, 5-[4-(2-dimethylaminoethylsulfonyl)phenyl]-3-[5-(3-methyl-2-thienyl)-1,3,4-oxadiazol-2-yl]pyrazin-2-amine], the inhibition constant (Ki) was at most 10 nM.
The value for `Nc1ncc(-c2ccc(C(=O)N3CCCNCC3)c(F)c2)nc1-c1nnc(-c2ccccc2)o1` [IA-6] was at most 10 nM.
The value for `CNCc1ccc(-c2nnc(-c3nc(-c4ccc(S(=O)(=O)C5COC5)cc4)cnc3N)o2)cc1` [IA-308, 3-[5-[4-(methylaminomethyl)phenyl]-1,3,4-oxadiazol-2-yl]-5-[4-(oxetan-3-ylsulfonyl)phenyl]pyrazin-2-amine] was at most 10 nM; that for `Nc1ncc(-c2ccccc2)nc1-c1nc2cccc(O)c2[nH]1` [Compound I-113, 2-(3-amino-6-phenylpyrazin-2-yl)-1H-benzo[d]imidazol-7-ol] was 100 to 5000 nM; that for `CN(C)C(=O)c1ccc(-c2cnc(N)c(-c3nnc(NC4CCNCC4)o3)n2)cc1` [IA-54] was 100 to 5000 nM.
The figure for `NC(=O)Cc1ccccc1-c1cnc(N)c(-c2nnc(-c3ccccc3)o2)n1` [IA-266, 2-[2-[5-amino-6-(5-phenyl-1,3,4-oxadiazol-2-yl)pyrazin-2-yl]phenyl]acetamide] is 10 to 100 nM.
As for `CN(C)C1CCN(C(=O)c2ccc(-c3cnc(N)c(-c4nnc(-c5ccccc5)o4)n3)cc2F)CC1` [IA-4], the Ki was at most 10 nM.
Regarding `Nc1ncc(-c2cncnc2)nc1C(=O)Nc1ccccc1` [Compound I-40, 3-amino-N-phenyl-6-(pyrimidin-5-yl)pyrazine-2-carboxamide], the Ki lay within 100 to 5000 nM.
Take `Cc1ccc(-c2nnc(-c3nc(-c4ccc(C(=O)N(C)C)cc4)cnc3N)o2)cc1` [IA-263, 4-[5-amino-6-[5-(p-tolyl)-1,3,4-oxadiazol-2-yl]pyrazin-2-yl]-N,N-dimethyl-benzamide]: the Ki lay within 10 to 100 nM.
Consider `N#Cc1cnccc1-c1cnc(N)c(C(=O)Nc2ccccc2)n1` [Compound I-2, 3-amino-6-(3-cyanopyridin-4-yl)-N-phenylpyrazine-2-carboxamide], for which the Ki is at most 10 nM.
In the case of `Nc1ncc(-c2ccc(C(=O)CN3CCC(O)CC3)cc2)nc1C(=O)Nc1ccccc1` [Compound I-23, 3-amino-6-(4-(2-(4-hydroxypiperidin-1-yl)acetyl)phenyl)-N-phenylpyrazine-2-carboxamide], the Ki lay in the range of 10 to 100 nM.
With `Cc1cccc(-c2cnc(N)c(-c3nnc(-c4ccccc4)o3)n2)c1` [IA-182, 5-(m-tolyl)-3-(5-phenyl-1,3,4-oxadiazol-2-yl)pyrazin-2-amine], the Ki fell in the range of 100 to 5000 nM.
For `CC(C)S(=O)(=O)c1ccc(-c2cnc(N)c(-c3nnc(CN)o3)n2)cc1` [IA-168, 3-[5-(aminomethyl)-1,3,4-oxadiazol-2-yl]-5-(4-isopropylsulfonylphenyl)pyrazin-2-amine], the inhibitory constant (Ki) was in the range of 100 to 5000 nM.
Turning to `CN(C)C(=O)c1ccc(-c2cnc(N)c(-c3nnc(-c4ccccc4)o3)n2)c(C=CF)c1` [IA-148, 4-[5-amino-6-(5-phenyl-1,3,4-oxadiazol-2-yl)pyrazin-2-yl]-3-(2-fluorovinyl)-N,N-dimethyl-benzamide], the Ki was in the range of 100 to 5000 nM.
For `Cc1ccsc1-c1nnc(-c2nc(-c3ccc(C(=O)N4CCCNCC4)cc3C#N)cnc2N)o1` [IA-181, 2-(5-amino-6-(5-(3-methylthiophen-2-yl)-1,3,4-oxadiazol-2-yl)pyrazin-2-yl)-5-(1,4-diazepane-1-carbonyl)benzonitrile], the Ki was at most 10 nM.
